Source: patent publication US10101331B2, “Methods of evaluating patients using E-cadherin or vimentin” (AGIOS PHARMACEUTICALS, INC, priority 2012, dated 2018)

What was measured:
Format in all cases: cell-based
LXF-289 = experiment: Lung cancer cell line panel screened for sensitivity to BPTES, 72 hr proliferation assay
NCI-H1703 = experiment: as above
A427 cells [1] = experiment: 72 hr proliferation assay in lines stably expressing empty vector, GAC or GAC-BR
Protocol: (§1) A427 parent cells or lines stably expressing pLVX empty vector control (Con), wild-type GAC (GAC), or a BPTES-resistant GAC enzyme (GAC-BR) were treated with indicated concentrations of drugs in a 72 hr proliferation assay. […] Calculated p-values from student t-test, * (3×10^−8), **(10^−9), ^#(10^−7), ^##(2×10^−6).
Levels of overexpression of the GAC WT and GAC-BR mutant were approximately 1.5-2.0 fold above endogenous GLS1 levels (FIG. 12).

A427 cells [2] = experiment: 13C(5)-Gln labeling of glutamate and aspartate, LC/MS; details: 1 hr drug pre-treatment, 2 hr 13C(5)-Gln labeling
Protocol: as §1
(§2) Several groups have shown that GLS inhibition leads to a decrease in cellular tricarboxylic acid cycle (TCA) intermediates downstream of GLS activity (P. Gao et al. Nature 458, 762 (2009); T. Cheng et al. Proceedings of the National Academy of Sciences 108, 8674 (2011)). Measurement of glutamate (the product of the glutaminase reaction) and aspartate (which derives both carbon and nitrogen from glutamate) are particularly sensitive readouts of glutaminase activity (FIG. 13). ^13C labeled carbon in cells pre-treated with drug was tracked for 1 hr, followed by a 2 hr ^13C(5)-Gln labeling period, via LC/MS.

MDA-MB-231 cells = experiment: as above; details: 1 hr drug pre-treatment, 2 hr 13C(5)-Gln labeling
Protocol: MDA-MB-231 cell lines stably expressing empty vector control (Con), wild-type GAC (GAC), or a BPTES-resistant GAC enzyme (GAC-BR) were treated with indicated concentrations of drugs in a 72 hr proliferation assay. […] Calculated p-values from student t-test, * (3×10^−5), **(7×10^−10), ^#(3×10^−5), ^##(5×10^−7).
as §2

NCI-H28 = experiment: Mesothelioma cancer cell lines screened for sensitivity to BPTES; details: NCI-H28, among mesothelioma cancer cell lines
Description: The MET-5A cell line is a normal […] cell line.
(§3) Low E-cadherin/high vimentin are well-defined markers of cells that have a mesenchymal phenotype as characterized for example, in any one of the following references: (Yauch et al., (2005) Cin Cancer Res 11:24; Savagner et al., (2010) Ann Oncol. 21(suppl 7): vii89; Thiery et al., (2002) Nature Reviews Cancer June vol 2:442).

[3] = test system: panel of 62 lung cancer cell lines; experiment: Lung cancer cell line panel screened for sensitivity to BPTES, whole panel
Description: as §3, with “Of these, 44 of the cell lines have been classified as non-small cell lung cancer (NSCLC). […] Four of the top 25 transcriptional/cellular pathways were related to the epithelial-mesenchymal transition (EMT) (ranks 1, 15, 23, 25 of FIG. 2). […] Low” for “Low”

O=C(Cc1ccccc1)Nc1nnc(CCSCCc2nnc(NC(=O)Cc3ccccc3)s2)s1 [BPTES]
Max Inh @ 10 uM (%) (LXF-289; LXF-289, 10 uM): 91% | Mu/max @10 uM (LXF-289; LXF-289, 10 uM): −0.25 | μ/μmax @10 uM (LXF-289; LXF-289, 10 uM): −0.25 | μ/μmax (LXF-289; LXF-289 cell line): −0.25 | Max Inh @ 10 uM (%) (NCI-H1703; NCI-H1703, 10 uM): 87% | Mu/max @10 uM (NCI-H1703; NCI-H1703, 10 uM): 0.30 | μ/μmax @10 uM (NCI-H1703; NCI-H1703, 10 uM): 0.30 | μ/μmax (NCI-H1703; NCI-H1703 cell line): 0.30 | sensitivity to BPTES (A427 cells [1]; A427 cells expressing empty vector or GAC-WT): retained significant sensitivity | sensitivity to BPTES (A427 cells [1]; A427 cells with stable overexpression of the GAC-BR mutant): rendered resistant | 13C label accumulation in glutamate and aspartate (A427 cells [2]): decreased label accumulation | 13C label accumulation in glutamate and aspartate (MDA-MB-231 cells): decreased label accumulation | sensitivity to BPTES (NCI-H28): most sensitive | share of the 62 lines with significant sensitivity to BPTES (μ/μmax<0.6) [3]: Approximately 30%
